Columns and labels:
bermudagrass = assay: Test C pre-/postemergence test; assay type: in vivo, Cynodon dactylon; details: for Plant response rating, Bermudagrass: scale 0 to 100, 0 no effect, 100 complete control
Method in brief: (§1)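 Compounds in a non-phytotoxic solvent with surfactant applied preemergence to seeded pots and, at the same time, postemergence to plants 2–18 cm tall (1- to 4-leaf stage). Paddy tests: pots flooded to 3 cm, compound applied into the water, depth held throughout.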

Goosegrass = assay: Test C pre-/postemergence test; assay type: in vivo, Eleusin indica; details: for Plant response rating, Goosegrass: scale 0 to 100, 0 no effect, 100 complete control
Method in brief: as §1

cocklebur = assay: Test C pre-/postemergence test; assay type: in vivo, Xanthium strumarium; details: for Plant response rating, Cocklebur: scale 0 to 100, 0 no effect, 100 complete control
Method in brief: as §1

Italian ryegrass = assay: Test C pre-/postemergence test; assay type: in vivo, Lolium multiflorum; details: for Plant response rating, Ryegrass, Italian: scale 0 to 100, 0 no effect, 100 complete control
Method in brief: as §1

[1] = test system: common (oilseed) sunflower; assay: Test C pre-/postemergence test; assay type: in vivo, Helianthus annuus; details: for Sunflower plant response rating: preemergence, scale 0 (no effect) to 100 (complete control)
Method in brief: as §1

soybean = assay: Test C pre-/postemergence test; assay type: in vivo, Glycine max; details: for Plant response rating, Soybean: scale 0 to 100, 0 no effect, 100 complete control
Method in brief: as §1

crabgrass [2] = assay: Test A pre-/postemergence greenhouse test; assay type: in vivo, Digitaria sanguinalis; details: for Crabgrass, Large plant response rating: 0 to 100 scale
Method in brief: (§2)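 Visual injury ratings, made relative to untreated controls roughly ten days after treatment, cover both preemergence and postemergence application. Compounds in a surfactant-containing non-phytotoxic solvent were sprayed onto the soil surface after sowing and, simultaneously, onto young plants at the one- to two-leaf stage.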

pigweed = assay: Test C pre-/postemergence test; assay type: in vivo, Amaranthus retroflexus; details: for Plant response rating, Pigweed: scale 0 to 100, 0 no effect, 100 complete control
Method in brief: as §1

giant foxtail = assay: Test A pre-/postemergence greenhouse test; assay type: in vivo, Setaria faberi; details: for Foxtail, Giant plant response rating: 0 to 100 scale
Method in brief: as §2

crabgrass [3] = assay: Test C pre-/postemergence test; assay type: in vivo, Digitaria sanguinalis; details: for Plant response rating, Crabgrass, Large: scale 0 to 100, 0 no effect, 100 complete control
Method in brief: as §1

morningglory = assay: Test A pre-/postemergence greenhouse test; assay type: in vivo, Ipomoea spp.; details: for Morningglory plant response rating: 0 to 100 scale
Method in brief: as §2

kochia = assay: Test C pre-/postemergence test; assay type: in vivo, Kochia scoparia; details: for Plant response rating, Kochia: scale 0 to 100, 0 no effect, 100 complete control
Method in brief: as §1

lambsquarters = assay: Test C pre-/postemergence test; assay type: in vivo, Chenopodium album; details: for Plant response rating, Lambsquarters: scale 0 to 100, 0 no effect, 100 complete control
Method in brief: as §1

barnyardgrass [4] = assay: Test C flooded paddy test; assay type: in vivo, Echinochloa crus-galli; details: Flood
Method in brief: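 Test compounds are applied straight into paddy water held 3 cm above the soil surface, with that flood maintained for the whole test. After 13 to 15 days in the greenhouse, each species is scored visually relative to controls.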

barnyardgrass [5] = assay: Test A pre-/postemergence greenhouse test; assay type: in vivo, Echinochloa crus-galli; details: for Barnyardgrass plant response rating: 0 to 100 scale
Method in brief: as §2

Surinam grass = assay: Test C pre-/postemergence test; assay type: in vivo, Brachiaria decumbens; details: for Surinam Grass plant response rating: preemergence, scale 0 (no effect) to 100 (complete control); for Plant response rating, Surinam Grass: scale 0 to 100, 0 no effect, 100 complete control
Method in brief: as §1

[6] = 31 g ai/ha, Preemergence, scale 0 to 100
[7] = 62 g ai/ha, preemergence, scale 0 (no effect) to 100 (complete control)
[8] = preemergence, 125 g ai/ha, scale 0 (no effect) to 100 (complete control)
[9] = Postemergence, 125 g ai/ha, 0 is no effect, 100 is complete control
[10] = Postemergence, 500 g ai/ha, 0 is no effect, 100 is complete control
[11] = Preemergence, 125 g ai/ha, 0 no effect, 100 complete control
[12] = Preemergence, 500 g ai/ha, 0 to 100 scale where 0 is no effect and 100 is complete control

CC(c1c(C(F)(F)F)nn(C)c1OC(F)F)S(=O)(=O)c1cccc[n+]1[O-] (stereo not shown) [Compound 5]
Bermudagrass plant response rating (bermudagrass; [6]): 100 | Bermudagrass plant response rating (bermudagrass; [7]): 100 | Plant response rating (0 to 100), Bermudagrass (bermudagrass; Postemergence, 31 g ai/ha): 5 | Plant response rating, Bermudagrass (bermudagrass; Postemergence, 62 g ai/ha): 40 | Plant response rating, Bermudagrass (bermudagrass; Postemergence, 125 g ai/ha): 60 | Plant response rating, Bermudagrass (bermudagrass; Postemergence, 250 g ai/ha): 60 | Plant response rating (0 to 100), Bermudagrass (bermudagrass; Preemergence, 250 g ai/ha): 100 | Bermudagrass plant response rating (bermudagrass; [8]): 100 | Goosegrass plant response rating (Goosegrass; [6]): 100 | Goosegrass plant response rating (Goosegrass; [7]): 100 | Plant response rating (0 to 100), Goosegrass (Goosegrass; Postemergence, 31 g ai/ha): 0 | Plant response rating, Goosegrass (Goosegrass; Postemergence, 62 g ai/ha): 55 | Plant response rating, Goosegrass (Goosegrass; Postemergence, 125 g ai/ha): 60 | Plant response rating, Goosegrass (Goosegrass; Postemergence, 250 g ai/ha): 70 | Plant response rating (0 to 100), Goosegrass (Goosegrass; Preemergence, 250 g ai/ha): 100 | Goosegrass plant response rating (Goosegrass; [8]): 100 | Cocklebur plant response rating (cocklebur; [6]): 0 | Cocklebur plant response rating (cocklebur; [7]): 0 | Plant response rating (0 to 100), Cocklebur (cocklebur; Postemergence, 31 g ai/ha): 0 | Plant response rating, Cocklebur (cocklebur; Postemergence, 62 g ai/ha): 0 | Plant response rating, Cocklebur (cocklebur; Postemergence, 125 g ai/ha): 0 | Plant response rating, Cocklebur (cocklebur; Postemergence, 250 g ai/ha): 10 | Plant response rating (0 to 100), Cocklebur (cocklebur; Preemergence, 250 g ai/ha): 0 | Cocklebur plant response rating (cocklebur; [8]): 0 | Ryegrass, Italian plant response rating (Italian ryegrass; [6]): 80 | Ryegrass, Italian plant response rating (Italian ryegrass; [7]): 100 | Plant response rating (0 to 100), Ryegrass, Italian (Italian ryegrass; Postemergence, 31 g ai/ha): 0 | Plant response rating (0 to 100), Ryegrass, Italian (Italian ryegrass; Postemergence, 62 g ai/ha): 0 | Plant response rating, Ryegrass, Italian (Italian ryegrass; Postemergence, 125 g ai/ha): 40 | Plant response rating, Ryegrass, Italian (Italian ryegrass; Postemergence, 250 g ai/ha): 50 | Plant response rating (0 to 100), Ryegrass, Italian (Italian ryegrass; Preemergence, 250 g ai/ha): 100 | Ryegrass, Italian plant response rating (Italian ryegrass; [8]): 100 | Sunflower plant response rating ([1]; 62 g ai/ha): 55 | Plant response rating (0 to 100), Sunflower ([1]; Preemergence, 250 g ai/ha): 85 | Sunflower plant response rating ([1]; 125 g ai/ha): 70 | Soybean plant response rating (soybean; [6]): 0 | Plant response rating (0 to 100), Soybean (soybean; Postemergence, 31 g ai/ha): 0 | Plant response rating (0 to 100), Soybean (soybean; Postemergence, 62 g ai/ha): 20 | Plant response rating, Soybean (soybean; Postemergence, 125 g ai/ha): 35 | Plant response rating, Soybean (soybean; Postemergence, 250 g ai/ha): 70 | Plant response rating (0 to 100), Soybean (soybean; Preemergence, 250 g ai/ha): 0 | Crabgrass, Large plant response rating (crabgrass [2]; [9]): 80 | Crabgrass, Large plant response rating (crabgrass [2]; [10]): 90 | Crabgrass, Large plant response rating (crabgrass [2]; [11]): 80 | Plant response rating, Crabgrass, Large (crabgrass [2]; [12]): 100 | Pigweed plant response rating (pigweed; [6]): 100 | Pigweed plant response rating (pigweed; [7]): 100 | Plant response rating (0 to 100), Pigweed (pigweed; Postemergence, 31 g ai/ha): 0 | Plant response rating (0 to 100), Pigweed (pigweed; Postemergence, 62 g ai/ha): 0 | Plant response rating, Pigweed (pigweed; Postemergence, 125 g ai/ha): 0 | Plant response rating, Pigweed (pigweed; Postemergence, 250 g ai/ha): 0 | Plant response rating (0 to 100), Pigweed (pigweed; Preemergence, 250 g ai/ha): 100 | Pigweed plant response rating (pigweed; [8]): 100 | Foxtail, Giant plant response rating (giant foxtail; [9]): 90 | Foxtail, Giant plant response rating (giant foxtail; [10]): 90 | Foxtail, Giant plant response rating (giant foxtail; [11]): 90 | Plant response rating, Foxtail, Giant (giant foxtail; [12]): 100 | Crabgrass, Large plant response rating (crabgrass [3]; [6]): 98 | Crabgrass, Large plant response rating (crabgrass [3]; [7]): 100 | Plant response rating (0 to 100), Crabgrass, Large (crabgrass [3]; Postemergence, 31 g ai/ha): 5 | Plant response rating, Crabgrass, Large (crabgrass [3]; Postemergence, 62 g ai/ha): 20 | Plant response rating, Crabgrass, Large (crabgrass [3]; Postemergence, 125 g ai/ha): 60 | Plant response rating, Crabgrass, Large (crabgrass [3]; Postemergence, 250 g ai/ha): 60 | Plant response rating (0 to 100), Crabgrass, Large (crabgrass [3]; Preemergence, 250 g ai/ha): 100 | Crabgrass, Large plant response rating (crabgrass [3]; [8]): 100 | Morningglory plant response rating (morningglory; [9]): 60 | Morningglory plant response rating (morningglory; [10]): 90 | Morningglory plant response rating (morningglory; [11]): 90 | Plant response rating, Morningglory (morningglory; [12]): 100 | Kochia plant response rating (kochia; [6]): 80 | Kochia plant response rating (kochia; [7]): 100 | Plant response rating (0 to 100), Kochia (kochia; Postemergence, 31 g ai/ha): 0 | Plant response rating, Kochia (kochia; Postemergence, 62 g ai/ha): 0 | Plant response rating, Kochia (kochia; Postemergence, 125 g ai/ha): 0 | Plant response rating, Kochia (kochia; Postemergence, 250 g ai/ha): 0 | Plant response rating (0 to 100), Kochia (kochia; Preemergence, 250 g ai/ha): 100 | Kochia plant response rating (kochia; [8]): 100 | Lambsquarters plant response rating (lambsquarters; [6]): 100 | Lambsquarters plant response rating (lambsquarters; [7]): 100 | Plant response rating (0 to 100), Lambsquarters (lambsquarters; Postemergence, 31 g ai/ha): 0 | Plant response rating, Lambsquarters (lambsquarters; Postemergence, 62 g ai/ha): 0 | Plant response rating, Lambsquarters (lambsquarters; Postemergence, 125 g ai/ha): 0 | Plant response rating, Lambsquarters (lambsquarters; Postemergence, 250 g ai/ha): 0 | Plant response rating (0 to 100), Lambsquarters (lambsquarters; Preemergence, 250 g ai/ha): 100 | Lambsquarters plant response rating (lambsquarters; [8]): 100 | Plant response rating, Barnyardgrass (barnyardgrass [4]; 31 g ai/ha, scale 0 to 100 (0 no effect, 100 complete control)): 70 | Plant response rating, Barnyardgrass (barnyardgrass [4]; 62 g ai/ha, scale 0 to 100, 0 no effect, 100 complete control, 13 to 15 days): 80 | Plant response rating, Barnyardgrass (barnyardgrass [4]; 125 g ai/ha, scale 0 to 100, 0 no effect, 100 complete control, 13 to 15 days): 85 | Plant response rating, Barnyardgrass (barnyardgrass [4]; 250 g ai/ha, scale 0 to 100 (0 no effect, 100 complete control)): 85 | Barnyardgrass plant response rating (barnyardgrass [5]; [9]): 80 | Barnyardgrass plant response rating (barnyardgrass [5]; [10]): 80 | Barnyardgrass plant response rating (barnyardgrass [5]; [11]): 70 | Plant response rating, Barnyardgrass (barnyardgrass [5]; [12]): 90 | Surinam Grass plant response rating (Surinam grass; 62 g ai/ha): 70 | Plant response rating (0 to 100), Surinam Grass (Surinam grass; Postemergence, 31 g ai/ha): 30 | Plant response rating (0 to 100), Surinam Grass (Surinam grass; Postemergence, 62 g ai/ha): 55 | Plant response rating, Surinam Grass (Surinam grass; Postemergence, 125 g ai/ha): 60 | Plant response rating, Surinam Grass (Surinam grass; Postemergence, 250 g ai/ha): 100 | Plant response rating (0 to 100), Surinam Grass (Surinam grass; Preemergence, 250 g ai/ha): 95 | Surinam Grass plant response rating (Surinam grass; 125 g ai/ha): 70
